Our source for the melting point values is a melting point compilation (Tetko et al.; mined from patent text by program, amines drawn as free bases though some values may be those of a salt).

Residues, ends and D or L forms follow the SMILES beside them. *: point of attachment. Cbz = O=C(OCc1ccccc1)* Some results are limits rather than exact numbers.

For `CCOCC1COc2cc3c(Cl)c(C(=O)OCC)cnc3cc2O1` (centres undefined), the melting point is 106 to 108 °C. As for `COc1ccc(C2CCC(C(=O)O)CC2)c2c1OCO2` (centres undefined), the figure is 206 to 208 °C. As for `O=C(O)c1ccc(OC2=C3N=C4CCCCC4=C3C(Cc3ccc(Cl)cc3)C=C2)o1` (centres undefined), the figure is 162 to 164 °C; as for `COc1ccc2c(c1)N(CC1CN3CCC1CC3)c1ccccc1S2` (centres undefined), 135 to 136 °C; as for `O=C(Cl)c1cnoc1-c1ccc(Cl)cc1Cl`, 46 to 50 °C.

Turning to `O=C(NCc1ccccc1)C1c2ccccc2-c2ccccc21`, the melting point was 195 to 200 °C. The value for `NC(=N[N+](=O)[O-])NCCSCc1csc(NC(N)=NCC(F)(F)Cl)n1` was 112 to 116 °C; that for `Cc1ccccc1C(F)(F)C(F)(F)c1ccccc1C` was 71.5 to 73.5 °C.

Molecule `NNc1nc2cc(Cl)ccc2nc1Cl` had a melting point below 250 °C. The molecule `CCOC(=O)c1sc(C)nc1OCCCc1cc(OC(C)C)nn1Cc1ccc(Cl)cc1Cl` showed a melting point of 92 to 93 °C.

The molecule `COC(=O)CCCCCCC(=O)Nc1ccc(C(=O)NN=C2C(=O)Nc3ccc(I)cc32)cc1` returned a melting point of 268 °C. As for `Cc1ccc(-c2nc3ccccc3o2)cc1`, the figure is 113 to 114 °C; as for `C=C(C1=C(CCC(=O)OC)C(=O)CC1O)c1ccccc1` (centres undefined), 80 °C.

`COC(=O)/C=C1\CCc2cc(C(C)(C)C)ccc21` yielded a melting point of 116 to 118 °C. The molecule `Cn1c([N+](=O)[O-])cnc1COc1ccc([N+](=O)[O-])cc1C(F)(F)F` returned a melting point of 153 °C.

As to `CCCOc1ccc(N(C)C)cc1-c1ncc(-c2nnn[nH]2)c(=O)[nH]1`, the melting point was in the range of 258 to 259 °C.

In turn, `CC(C)(C)OC(=O)[C@H](CCSCc1cn(C(c2ccccc2)(c2ccccc2)c2ccccc2)cn1)NC(=O)OCc1ccccc1` came in with a melting point of 183 to 185 °C.

`CSc1nc(O)c(C#N)n1C(C)C` displayed a melting point of 196 to 198 °C.

`Cc1csc(C(=O)OC(C)C)c1S(=O)(=O)Cl` yielded a melting point of 58 °C.

Consider `CN1C(=O)C(Cc2ccccc2)N(C)C(=O)C1=Cc1c(C#N)ccc(F)c1F` (centres undefined), for which the melting point came to 175 °C. `CCCCOC(=O)C(CC(C)C)NC(=O)c1cc([N+](=O)[O-])cc([N+](=O)[O-])c1` (centres undefined) had a melting point of 95 to 98 °C. The value for `CCNc1nc(-c2ccc(F)c3ccccc23)cc(C(C)C)n1` was 77 to 78 °C; that for `CS(=O)(=O)Nc1cc(N)ccc1Oc1ccccc1` was 112 to 114 °C. The value for `Cc1ccc(C(=O)NCCC(=O)OCc2ccccc2)c(NC(=O)C(CCCNC(=N)N[N+](=O)[O-])NC(=O)OCc2ccccc2)c1` (centres undefined) was 154 to 156 °C; that for `COc1cccc(-c2ccnc(Nc3cc(OC)c(OC)c(OC)c3)n2)c1` was 155 to 156 °C. With `CCCCCCCCCCC(O)C(=O)N[C@@H](CCCC)CCC(=O)O` (some centres undefined), the melting point lay in the range of 53 to 55 °C. Molecule `CC12CCC(=O)C=C1CCC1C2CCC2(C)C(n3cnc4ccccc43)=CCC12` (centres undefined) yielded a melting point of 201 to 204 °C. As for `Ic1ccc(OC2CCCCO2)cc1` (centres undefined), the figure is 66 °C; as for `CCOC(=O)C1=C(C)Nc2c(C(=O)O)ncn2C1c1cccc([N+](=O)[O-])c1` (centres undefined), 222 °C; as for `CCN1C(=O)Cc2cc3c(cc21)C(O)CO3` (centres undefined), 144 to 145 °C. As for `COc1cc2[nH]c(C)c(CCN3CCN(NC(=O)c4ccccc4)CC3)c2cc1OC`, the figure is 128 to 131 °C; as for `O=S(=O)(NCC1CCN(C[C@H]2COc3ccc4[nH]ccc4c3O2)CC1)c1ccccn1`, 86 to 88 °C. As for `N#Cc1ccc(OCCCCOc2ccc(-c3cc4cc(C#N)ccc4o3)cc2)cc1`, the melting point was in the range of 186 to 188 °C. The value for `CC1=C(C(=O)OC(C)(C)C)C(c2ccccc2I)C(C(=O)OC(C)(C)C)=C(C)N1` was 184 to 185 °C; that for `CCCCCNC(=O)N(CCCc1ccncc1)CCC12CC3CC(CC(C3)C1)C2` was 47 to 50 °C; that for `CC(C)Oc1n[nH]c2nc(Oc3ccc(F)cc3F)ncc12` was 144 to 145 °C.

The molecule `O=c1[nH]c2ncc(-c3cncnc3)nc2n1CC1CCCCC1` gave a melting point above 260 °C. On to `c1ccc2c(c1)CCN(c1ccncc1)C2`, for which the melting point fell in the range of 95 to 96 °C. The value for `O=C(c1nc2ccc(O)cc2[nH]1)N1CCC(=Cc2ccccc2)CC1` was 148 °C; that for `O=C1c2c(Cl)cccc2-n2cnc(-c3noc(CN4CCCCC4)n3)c2[C@@H]2CCN12` was 177 to 179 °C; that for `O=c1c2c[nH]c3cccnc3c-2nn1-c1ccccc1` was 314 to 316 °C. As for `CC(C)C[C@H](NS(=O)(=O)c1ccc2c(c1)Sc1ccccc1O2)C(=O)O`, the figure is 120 to 130 °C. As for `O=Cc1ccc(-c2cc(O)ccc2O)cc1`, the figure is 203 to 205 °C. `O=C(ON=C(Br)Br)c1ccc(Cl)cc1` returned a melting point of 93 to 97 °C.

Regarding `O=C(C[C@@H](C(=O)OCc1ccccc1)n1c2ccccc2c2ccccc21)OCCOC(=O)c1ccc(NC(=O)OCc2ccccc2)cc1`, the melting point stood at 58 °C. As for `CC(=O)c1[nH]c(C)nc1C`, the figure is 83 to 87 °C. The value for `COC(OC)c1cnc(-c2ccccc2)nc1N` was 116 to 118 °C. On to `Cc1c(C)n2c3c(cccc13)CCc1ccccc1-2`, for which the melting point was in the range of 76 to 77 °C. The value for `CC(=O)Oc1ccc(C(C[N+](=O)[O-])SC(=S)N(C)C)cc1` (centres undefined) was 116 to 118 °C; that for `COC(=O)C(CC(C)C)NC(=O)C(CC(N)=O)NC(=O)OCc1ccccc1` (stereo not drawn) (Cbz-Asn-Leu-OMe; configuration not given here) was 191 to 193 °C; that for `O=C(c1ccc2nonc2c1)N1CCOCC1` was 148 to 150 °C. The value for `CCC1(CC)O[C@@H](C(=O)O)[C@H](c2ccccc2)N1C(=O)OC(C)(C)C` was 185 °C; that for `COC(=O)C1CC(=O)C(NC(C)=O)=C(O)C1` (centres undefined) was 131 to 132 °C; that for `N#CC1=C(n2cccc2)Oc2c(ccc3cc(C(=O)O)c(O)cc23)C1c1cccc([N+](=O)[O-])c1` (centres undefined) was above 230 °C. As for `O=C(O)C(=O)c1ccc(OCOc2ccccc2)cc1`, the figure is 72 to 74 °C; as for `CCCCCCCCCCCC#Cc1ccccc1C=C(C(=O)OCC)P(=O)(O)O`, 68 to 69 °C; as for `O=C(O)C1Cc2c(cc(Cl)c3c(-c4ccccc4F)noc23)O1` (centres undefined), 191 to 193 °C. With `c1ccc2c(c1)Sc1ccccc1N2C1CN2CCC1CC2` (centres undefined), the melting point was in the range of 160 to 162 °C. As for `CCc1c(-c2cc(C)c(OC)c(C)c2)[nH]c2ccccc12`, the figure is 126 to 127 °C; as for `Cn1cc(C2=C(c3cn(C4CCN(CC(F)(F)C(F)(F)C(F)(F)F)CC4)c4ccccc34)C(=O)NC2=O)c2ccccc21`, 231 to 234 °C.

With `CC(C)n1cc(-c2ccc(NC(=O)c3ccccc3)cc2)c2c(N)ncnc21`, the melting point lay within 192 to 195 °C. As for `CCN(CC)C(=O)c1[nH]c2ccccc2c1CN(Cc1cc(C(F)(F)F)cc(C(F)(F)F)c1)c1nnn(C)n1`, the melting point was found to be 98 °C. As for `Cc1ccc2cccc(OCc3c(Cl)ccc(S(=O)(=O)NC(C)(C)C)c3Cl)c2n1`, the figure is 191 °C; as for `O=C(O)CCCSC(=S)NCCCc1ccc(Cl)cc1`, 98 to 100 °C. The value for `C=Cc1c(F)c(F)cc(C(=O)O)c1F` was 108 to 110 °C.

On to `Cn1ccnc1Sc1ccc(Nc2c(C#N)cnc3cc(/C=C/CCN4CCOCC4)ccc23)cc1Cl`, for which the melting point was in the range of 232 to 238 °C.

Molecule `CCCCCCCCC1CC(Cn2cncn2)(c2ccc(OC)cc2)N(C)O1` (centres undefined) showed a melting point of 89 to 91 °C. The value for `CC1(CCl)CN(C2CCN(c3cccc(OC(F)(F)F)c3)C2=O)C1=O` (centres undefined) was 104 to 106 °C. As for `O=C(NC(=O)N1CCC(Cc2ccccc2)CC1)c1ccc2[nH]ccc2c1`, the figure is 110 to 112 °C; as for `O=c1[nH]c2ccccc2n1CCCCN1CCC(c2c[nH]c3ccccc23)CC1`, 196 °C; as for `COc1ccc(CC(=O)O)cc1C(C)C`, 94 to 96 °C. `COc1ccc(S(=O)(=O)N2C(=O)C(NCCC(=O)OC(C)(C)C)(c3ccccc3OC)c3cc(Cl)ccc32)c(OC)c1` (centres undefined) showed a melting point of 175 °C. The value for `CCOC1CC2(C)C(CCC3C2C(=NO)CC2(C)C3CCC23OCCO3)CC1O` (centres undefined) was 136 to 140 °C; that for `CCOc1cccc(F)c1C1OC(=O)NC1=O` (centres undefined) was 127 to 128 °C. The value for `Cc1ccc(N2CCN(c3ccc(C(C)(C)O)nc3-c3ccc(C(C)C)cc3)CC2)cc1` was 130 to 133 °C; that for `COCCN(C)CC1=Cc2cc(S(N)(=O)=O)sc2S(=O)(=O)N1C` was 127 to 129 °C; that for `CC(C)n1nc(-c2c(OCC(=O)N(C)C)nc(N)nc2-c2ccccc2)ccc1=O` was 133 to 136 °C.

`COc1cc2c3c(c1)nc(-c1ccccc1)n3CCC2=NO` yielded a melting point of 235 to 238 °C. With `CCOc1ccccc1OCC1(O)CCN(Cc2ccccc2)C1` (centres undefined), the melting point fell in the range of 56.5 to 59 °C. With `COc1ccc(C(=O)Oc2ccccc2)nc1C`, the melting point was in the range of 103 to 105 °C. In turn, `O=C(Oc1ccccc1)C(=O)Oc1ccccc1` returned a melting point of 132 to 135 °C. On to `N#CCc1ccc(NC(=O)C(F)(F)C(F)(F)C(F)(F)C(F)(F)F)cc1`, for which the melting point lay within 126 to 128 °C. As for `CCCc1cc(NCc2ccc3c(c2)OCO3)nc(SCC#N)n1`, the figure is 92 to 94 °C.

In the case of `O=C(Cn1cc(-c2ccccc2)c(-c2ccccc2)n1)NCCN1CCCCC1`, the melting point fell in the range of 120 to 124 °C. `O=C(c1ccc(Cl)cc1)C1CCN(S(=O)(=O)N2CCCC[C@@H]2C(=O)NO)CC1` registered a melting point of 84.4 to 86.4 °C. Regarding `CCOC(=O)c1cn(C2CC2)c2c(F)c(N3CCOC(CN(C)C)C3)c(F)cc2c1=O` (centres undefined), the melting point fell in the range of 168 to 169 °C. As for `CC(=O)OCCCCCC(=O)CC(=O)c1ccccc1`, the melting point was in the range of 23 to 24 °C.

`CCOC(=O)N1CCN(C(=CNc2cccc(OC)c2)C(=O)OC)CC1` registered a melting point of 120 to 122 °C.

In turn, `CC=CCNc1cc(C(=O)O)cc(S(N)(=O)=O)c1Sc1ccc(NC(C)=O)cc1` had a melting point of 148 °C.

As a reminder, the melting point is the temperature of the solid-liquid transition.
